# Laboratory results from patent US20140066367A1, “SUBCUTANEOUS DELIVERY OF A LONG-ACTING NATRIURETIC PEPTIDE” (Mayo Foundation for Medical Education and Research, priority 2012, published 2014).
# How the values were obtained:
# [1] = Plasma ANP immunoreactivity and pharmacokinetics after subcutaneous administration to conscious canines; type: in vivo, canine
# Method: (§1) Studies were performed in accordance with the Animal Welfare Act and with approval of the Mayo Clinic Institutional Animal Care and Use Committee. A randomized crossover study was designed in which equimolar (2.225 nmol/kg) SQ M-ANP and SQ ANP were administered to conscious healthy adult canines (n=5) at 2-week intervals. Vehicle (SQ 0.9% normal saline) was administered to 3 canines serving as a control group. At least 7 days prior to the above studies, an arterial port was placed in the femoral artery as previously described (Cataliotti et al. (2008) Circulation, 118:1729-1736). After recovery from arterial port placement, canines were fed a fixed sodium diet of 100 mEq/d with ad libitum access to water for 5 days before initiation of studies. During this time, canines were acclimatized to standing calm in a sling. On the day of the experiment, the dogs were fasted and placed in a sling in a quiet room. Thirty minutes before the beginning of the experiment, the femoral artery port was accessed for continuous BP and heart rate assessment (iWorx, Dover, N.H.). After 30 minutes of acclimatization, the study protocol was started. Subcutaneous M-ANP, ANP or vehicle was administered at time 0 minutes. At time −15, 0, 5, 10, 15, 30, 45, 60, 75, 90, 120, 150, 180, 210, 240, 270, and 300 minutes, mean arterial pressure (MAP) and heart rate samples were obtained over a period of 1 minute. […]
# (§2) Blood samples were collected in chilled EDTA tubes, immediately placed on ice, and centrifuged at 4° C. […] After extraction, plasma ANP immunoreactivity (Phoenix Pharmaceuticals, Burlingame, Calif.) was assessed by radioimmunoassay as previously described (Burnett et al. (1986) Science, 231:1145-1147). […] Plasma cGMP (PerkinElmer, Waltham, Mass.) was assessed by radioimmunoassay (Steiner et al., supra).
# (§3) Pharmacokinetic profile of M-ANP compared to ANP was determined using PK Solutions software (Summit PK, Montrose, Colo.). Specific parameters that were determined included plasma half-life, maximum concentration (Cmax) and area under the curve (AUC).
# cGMP = experiment: Plasma cGMP after subcutaneous administration to conscious canines; type: in vivo, canine
# Method: as §1, §2, §3
# [2] = infusion of a low dose, normal dogs; cited from earlier work
# [3] = Mean arterial pressure and heart rate after subcutaneous administration to conscious canines; type: in vivo, canine; settings: SQ
# Method: as §1
# [4] = plasma cGMP, subcutaneous, equimolar 2.225 nmol/kg, conscious canines
compound,measurement,setting,value
CC[C@H](C)[C@@H]1NC(=O)[C@H](CCCNC(=N)N)NC(=O)[C@H](CC(=O)O)NC(=O)[C@H](CCSC)NC(=O)[C@H](CCCNC(=N)N)NC(=O)CNC(=O)CNC(=O)[C@H](Cc2ccccc2)NC(=O)[C@@H](NC(=O)[C@H](CO)NC(=O)[C@H](CO)NC(=O)[C@H](CCCNC(=N)N)NC(=O)[C@H](CCCNC(=N)N)NC(=O)[C@H](CC(C)C)NC(=O)[C@@H](N)CO)CSSC[C@@H](C(=O)N[C@@H](CC(N)=O)C(=O)N[C@@H](CO)C(=O)N[C@@H](Cc2ccccc2)C(=O)N[C@@H](CCCNC(=N)N)C(=O)N[C@@H](Cc2ccc(O)cc2)C(=O)O)NC(=O)CNC(=O)[C@H](CC(C)C)NC(=O)CNC(=O)[C@H](CO)NC(=O)[C@H](CCC(N)=O)NC(=O)[C@H](C)NC(=O)CNC1=O [ANP],time ANP immunoreactivity remained significantly elevated,"[1]; SQ, canines",45 min
same,time of peak ANP immunoreactivity after administration,"[1]; SQ, canines",15 min
same,ANPi AUC,"[1]; subcutaneous, equimolar 2.225 nmol/kg, conscious canines",10.8 ± 2.4 pmol·min/mL
same,duration of sustained cGMP activation,"cGMP; SQ, canines",60 min
same,cGMP AUC,cGMP; [4],676 ± 211 pmol·min/mL
same,cGMP Cmax,cGMP; [4],14.7 ± 1.9 pmol/mL
same,change in glomerular filtration rate (GFR) or MAP,[2],No change
same,effect on MAP,[3],no significant reduction in MAP
